Residues, ends and D or L forms follow the SMILES beside them.
Experiments:
[1] = tested on: mitochondrial membrane of HeLa cells; settings: HeLa; 40 μM, 1 hour in α-MEM(−); Lipofectamine LTX/pCI complex overnight in α-MEM(+)
Excerpt: Mitochondrial membranes are considered to be rich in acidic lipid, as compared with cell membranes. Accordingly, the effects of the above peptides on a mitochondrial membrane were examined by JC-1 assay. A JC-1 reagent emits red (J-aggregate) fluorescence when the mitochondrial membrane is kept normal and the membrane potential is maintained; and the JC-1 reagent emits green (J-monomer) fluorescence when the mitochondrial membrane is damaged and the membrane potential is not kept normal. After HeLa cells were incubated with HAad, HA/E2, or L17E (40 μM) in α-MEM(−) for 1 hour, JC-1 assay was performed. The percentage of cells that emitted red fluorescence was assayed by flow cytometry.

HeLa cells [2] = assay: Release of Alexa 488-dextran (10 kDa) into the cytoplasm, confocal microscopy; format: cell-based
[3] = tested on: HeLa cells transfected with a plasmid encoding loxP-DsRed-loxP-EGFP; assay: Genetic recombination assay by intracellular delivery of Cre protein (EGFP expression); format: cell-based
Method: HeLa cells transfected with a plasmid encoding loxP-DsRed-loxP-EGFP, which were prepared in the same manner as in the Examples of PTL 2, were incubated with His-tag fusion Cre (Cre-Hiss) (10 μM) in the presence of HAad, HA/E2, or L17E (40 μM each) for 1 hour. This system was designed to express EGFP when intracellular release of Cre protein induces genetic recombination. […] The proportions of GFP-expressing cells in the cells treated with HAad, HA/E2, and L17E were 41%, 36%, and 30%, respectively. Considering the fact that the EGFP expression efficiency achieved with no administration of a release peptide was 9%, peptide administration of HAad, HA/E2, and L17E can be considered to increase genetic recombination by 32%, 27%, and […], respectively, as compared with no peptide administration.

HeLa cells [4] = assay: Intracellular release of Alexa 488-labeled human immunoglobulin (IgG, circa 160 kDa); format: cell-based; settings: for cells in which intracellular release of human immunoglobulin was observed: α-MEM(−) 1 hour
Method: The cells and human immunoglobulin fluorescently labeled with Alexa 488 (IgG, circa 160 kDa) (500 μg/mL) were incubated in the presence of HAad, HA/E2, or L17E (40 μM each) in α-MEM(−) medium for 1 hour in the same manner as in Example 6.
The cells and human immunoglobulin fluorescently labeled with Alexa 488 (IgG, circa 160 kDa) (50 μg/mL: 1/10 the volume of Example 8) were incubated in the presence of HAad or L17E (40 μM each) in α-MEM(−) medium for 1 hour.
In the presence of HAad or L17E (20 μM each: ½ the amount used in Examples 8 and 9), the cells and human immunoglobulin fluorescently labeled with Alexa 488 (IgG, circa 160 kDa) (500 μg/mL: the same amount as in Example 8) were incubated in α-MEM(−) medium for 1 hour. […] (In FIG. 9, the intracellular release achieved by treatment with a low concentration of HAad was 2.5 times the release achieved by L17E. With respect to the peptide concentration required to detect the signal of intracellularly released human immunoglobulin in 35% of the cells, the concentration of L17E is 40 μM, and the concentration of HAad is 20 μM, which is half the concentration of L17E.)

RAW 264.7 cells = assay: Cell-killing assay by intracellular delivery of toxin protein saporin (WST-8); format: cell-based; settings: saporin 10 μg/mL, 40 μM
Method: Saporin is known as a cytotoxin that kills cancer cells by its intracellular delivery. RAW 264.7 cells and saporin (10 μg/mL) were incubated in the presence of HAad, HA/E2, or L17E (40 μM each) in α-MEM(−) medium for 1 hour. After the cells were then washed and the medium was replaced with DMEM(+), the cells were further incubated for 6 hours. The cell viability (%) was assayed by WST-8 assay (FIG. 10).

cells = assay: Cell viability 24 hours after peptide treatment in the presence of serum (WST-8); format: cell-based; settings: 10-40 μM; α-MEM(+) 24 hours
Method: (§1) After the cells were incubated in the presence of HAad, HA/E2, or L17E (each 10 μM, 20 μM, and 40 μM) in α-MEM(+) medium for 24 hours, the cell viability (%) was evaluated by WST-8 assay (FIG. 14). The cell viability (%) after 24 hours with the use of any peptide at any concentration was almost 100%.

[5] = as above; format: cell-based; settings: cells (cell line not given); peptide 10 μM, 20 μM and 40 μM; α-MEM(+) 24 hours; WST-8
Method: as §1

HeLa cells [6] = assay: Nuclear accumulation of NLS-EGFP; format: cell-based; settings: NLS-EGFP 10 μM; peptide 40 μM; α-MEM(−) 1 hour
Method: The cells and NLS-EGFP (10 μM) were incubated in the presence of HAad or L17E (40 μM each) in α-MEM(−) medium for 1 hour in the same manner as in Example 6. If NLS-EGFP is intracellularly released while maintaining its activity, localization of green fluorescence in the nuclei is observed. […] A high activity of HAad to release endosome-encapsulated substances was also confirmed in this system.

[7] = Helix content from CD spectra in the presence of POPC/POPG (3:1) liposomes; format: physicochemical; settings: result in words (FIG. 1)
Method: The helix content was calculated by the method of Y. H. Chen et al., 1972, based on 222-nm molar ellipticity ([…]) using the following formula: Helicity (%)=−([θ]222+2340)/30300*100.
The helix content of the peptides obtained in Example 1 (L17E, L17E/Q21E, L17Aad, HA/E1, HA/E2, and HAad) was calculated in the presence of POPC/POPG (3:1) liposomes by the method of Y. H. Chen et al., 1972, based on 222-nm molar ellipticity ([θ]222) using the following formula: Helix content (%)=−([θ]222+2340)/30300*100. Further, the CD spectra of the peptides were measured.

**Q.** Which “effect on mitochondrial membrane (cells emitting red JC-1 fluorescence), in words” value [1] does the source give for `CC[C@H](C)[C@H](N)C(=O)N[C@@H](Cc1c[nH]c2ccccc12)C(=O)N[C@@H](CC(C)C)C(=O)N[C@H](C(=O)N[C@@H](C)C(=O)N[C@@H](CC(C)C)C(=O)N[C@@H](CCCCN)C(=O)N[C@@H](Cc1ccccc1)C(=O)N[C@@H](CC(C)C)C(=O)NCC(=O)N[C@@H](CCCCN)C(=O)N[C@@H](C)C(=O)N[C@@H](C)C(=O)N[C@@H](C)C(=O)N[C@@H](CCCCN)C(=O)N[C@@H](C)C(=O)N[C@@H](CCCC(=O)O)C(=O)N[C@@H](C)C(=O)N[C@@H](CCCCN)C(=O)N[C@@H](CCC(N)=O)C(=O)N[C@@H](CCCC(=O)O)C(=O)N[C@@H](CC(C)C)C(=O)N[C@@H](CO)C(=O)N[C@@H](CCCCN)C(=O)N[C@@H](CC(C)C)C(N)=O)[C@@H](C)O` [HAad, H-IWLTALKFLGKAAAKAXAKQXLSKL-amide] (HELM PEPTIDE1{I.W.L.T.A.L.K.F.L.G.K.A.A.A.K.A.[O=C(O)CCC[C@H](N[*:1])C(=O)[*:2]].A.K.Q.[O=C(O)CCC[C@H](N[*:1])C(=O)[*:2]].L.S.K.L.[am]}$$$$V2.0) here?
**A.** no significant difference from the untreated case

**Q.** And the EC50 (HeLa cells [2]; Alexa 488-dextran (10 kDa) 200 μg/mL, 1 hour, read-out: peptide concentration required to detect the signal of intracellularly released Alexa 488-dextran in 50% of the cells)?
**A.** 20 µM

**Q.** And the “EC50 relative to L17E” value (HeLa cells [2]; dextran release, HAad vs L17E)?
**A.** ½

**Q.** And the “proportion of GFP-expressing cells” value ([3]; Cre-His6 10 μM, peptide 40 μM, 1 hour, then 24 hours in α-MEM(+))?
**A.** 41%

**Q.** And the “increase of genetic recombination as compared with no peptide administration” value ([3]; EGFP expression with no release peptide was 9%)?
**A.** 32%

**Q.** And the “peptide concentration required to detect the signal of intracellularly released human immunoglobulin in 35% of the cells” value (HeLa cells [4]; IgG 500 μg/mL, 1 hour)?
**A.** 20 µM

**Q.** And the “intracellular release of IgG relative to L17E” value (HeLa cells [4]; peptide 20 μM, IgG 500 μg/mL (FIG. 9))?
**A.** 2.5 times

**Q.** And the “cells in which intracellular release of human immunoglobulin was observed” value (from here on “cells in which intracellular release”) (HeLa cells [4]; peptide 20 μM, IgG 500 μg/mL)?
**A.** about 37%

**Q.** What about the “IgG dose required for intracellular IgG release in 50% of the cells, relative” value (HeLa cells [4]; peptide 40 μM, HAad treatment compared with L17E) of the same compound?
**A.** 1/10

**Q.** And the “intracellular release of IgG relative to L17E” value (HeLa cells [4]; peptide 40 μM, IgG 50 μg/mL (FIG. 8))?
**A.** 5 times

**Q.** And the “cells in which intracellular release” value (HeLa cells [4]; peptide 40 μM, IgG 50 μg/mL)?
**A.** 50%

**Q.** And the “intracellular release of IgG relative to L17E” value (HeLa cells [4]; peptide 40 μM, IgG 500 μg/mL (FIG. 7))?
**A.** twice

**Q.** What about the “cells in which intracellular release” value (HeLa cells [4]; peptide 40 μM, IgG 500 μg/mL) of the same compound?
**A.** about 70%

**Q.** What about the “cell viability relative to that in the presence of L17E” value (RAW 264.7 cells) of the same compound?
**A.** ¼

**Q.** And the “toxicity, in words” value (cells)?
**A.** no significant toxicity

**Q.** What about the viability at 24 h [5] of the same compound?
**A.** ~100%

**Q.** And the “cells in which localization of NLS-EGFP in the nuclei was observed” value (HeLa cells [6])?
**A.** about 84%

**Q.** What about the “helicity in the presence of an acidic lipid membrane” value [7] of the same compound?
**A.** high helicity
